Among the data in PubChem BioAssay (NCI) are TGI and GI50 values, retold here.

Holding throughout (assay): NCI tumour cell line growth inhibition, 48 h
Experiment [1] relates to SK-MEL-2 melanoma.
Experiment [2] relates to HT29 colon.
Experiment [3] deals with MALME-3M melanoma.
Experiment [4] concerns NCI-H23 lung.
The subject of experiment [5] is OVCAR-5 ovarian.
The test system of experiment [6] is SN12C renal.
Experiment [7] concerns OVCAR-4 ovarian.
Experiment [8] has as its system HOP-62 NSCLC.
The subject of experiment [9] is MCF7 breast.
Experiment [10] relates to HS 578T breast.

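Assay format: 96-well plates, 48-hour exposure. GI50: concentration for 50% inhibition of growth. TGI: total growth inhibition.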

For the compound `CCN(CC)/[N+]([O-])=N/OCOC`, the TGI in experiment [1], in experiment [2], in [3], in [4], in experiment [5] and in experiment [6] was greater than 100 µM in each case. Further, the TGI in [7], in experiment [8], in [9] and in experiment [10] was greater than 100 µM throughout.

As for `CC(C)(O)CCc1cccc(C(=O)c2cnn(-c3ccc(F)cc3)c2N)c1`, the GI50 in experiment [1], in [2], in experiment [3], in experiment [4], in experiment [5] and in experiment [6] was greater than 25 µM each time. For the same compound, the GI50 in experiment [7] is greater than 23.3 µM; in experiment [8], greater than 25 µM; in experiment [9], greater than 25 µM; in [10], greater than 25 µM. Also, the TGI in experiment [1], in experiment [2], in [3], in [4], in experiment [5] and in experiment [6] was greater than 25 µM throughout. Besides, the TGI in experiment [7], in [8], in experiment [9] and in experiment [10] was greater than 25 µM in each case.

Take `C[C@@H](CS[As](C)C)C(=O)N1CCC[C@H]1C(=O)O`: the GI50 was 0.468 µM in experiment [1]; 0.715 µM in experiment [2]; 0.164 µM in experiment [3]; 0.359 µM in experiment [4]; 0.444 µM in experiment [5]; 0.2 µM in experiment [6]. Also, the GI50 in experiment [7] was 1.3 µM; in experiment [8], 0.897 µM; in [9], 0.249 µM; in [10], 0.255 µM. For the same compound, the TGI in [1] is 5.88 µM; in [2], greater than 100 µM; in experiment [3], 1.15 µM; in experiment [4], 2.33 µM; in [5], 1.8 µM; in [6] it was 1.03 µM. Moreover, the TGI in [8] came out at 5.11 µM; in [9] it was 2.03 µM; in [10], 0.796 µM.

Regarding `C[C@@]1(C(=O)O)CCC[C@]2(C)C1CC[C@]13C[C@@](O)(CO)[C@](O)(CC[C@]12O)C3` (some centres not stated), the GI50 in experiment [1], in experiment [2], in [3], in experiment [4], in experiment [5] and in [6] was greater than 100 µM in each case. Also, the GI50 in [7], in [8], in [9] and in experiment [10] was greater than 100 µM in each case. Further, the TGI in experiment [1], in experiment [2], in [3], in experiment [4], in experiment [5] and in experiment [6] was greater than 100 µM throughout. Besides, the TGI in [7], in experiment [8], in experiment [9] and in [10] was greater than 100 µM throughout.

With `O=C(N/N=C/c1cc(Cl)ccc1O)c1ccccc1Nc1ccnc(C(F)(F)F)c1`, the GI50 is 2.71 µM in experiment [1]; 1.95 µM in [2]; 0.839 µM in experiment [3]; 1.31 µM in experiment [4]; 1.67 µM in [5]; 1.23 µM in [6]. In addition, the GI50 in experiment [7] was 0.299 µM; in experiment [8] it was 0.334 µM; in [9], 0.351 µM; in [10] it was 1.15 µM. Besides, the TGI in experiment [1] amounted to 19.9 µM; in experiment [2], 18.3 µM; in [3] it was 5.29 µM; in experiment [4], 16.3 µM; in experiment [5], 25.6 µM; in [6], 10.2 µM. Also, the TGI in [7] was found to be 35 µM; in experiment [8] it was 3.65 µM; in experiment [9] it was 30.3 µM; in [10], 10.5 µM.

`O=C1c2ccn(CCCNC(CO)(CO)CO)c2C(=O)c2c1c(O)c1ccccc1c2O`: the GI50 was 23.1 µM in [1]; 15.4 µM in experiment [2]; 22.7 µM in [3]; 15.2 µM in [4]; 3.16 µM in experiment [6]; 29.2 µM in [7]. The GI50 in [8] is 2.43 µM; in experiment [9], 13 µM; in experiment [10], 1.22 µM. Moreover, the TGI in [1] is 68.8 µM; in experiment [2], greater than 46.3 µM; in [3], 74.3 µM; in experiment [4] it was 30.5 µM; in experiment [5] it was 13.5 µM; in experiment [6], 17.9 µM. Moreover, the TGI was greater than 51.2 µM in experiment [7], 17.9 µM in experiment [8] and 33 µM in experiment [9].

For the compound `O=C(N=Nc1c(Cl)c(O)c2ccccc2c1O)C(=O)Nc1cccc(C(F)(F)F)c1`, the GI50 in experiment [1] is 7.22 µM; in [2], 6.44 µM; in [3], 3.12 µM; in experiment [4], 2.67 µM; in experiment [5], 14.7 µM; in experiment [6], 1.77 µM. Further, the GI50 in [7] was 6.03 µM; in experiment [8] it was 11.5 µM; in experiment [9], 1.84 µM; in experiment [10] it was 2.6 µM. Also, the TGI in experiment [1] is 20.5 µM; in experiment [2] it was 28 µM; in experiment [3], 7.64 µM; in experiment [4], 10.2 µM; in experiment [5] it was 28.6 µM; in experiment [6], 3.79 µM. In addition, the TGI in [7] worked out at 26.9 µM; in [8] it was 24.7 µM; in experiment [9], 4.31 µM; in [10], 8.6 µM.

Turning to `O=C1C(Cl)=C(Cl)C(=O)N1c1ccc(F)cc1`, the TGI is greater than 72.8 µM in experiment [1]; 49.8 µM in [2]; 32.5 µM in [3]; 36.9 µM in experiment [4]; 41 µM in [5]; 34.9 µM in [6]. Moreover, the TGI was determined as 23.8 µM in experiment [7], 98.7 µM in [8], 42.9 µM in experiment [9] and 55.4 µM in experiment [10].
